Where two headings read alike, the source gives them in different places.
Test system: angiotensin-converting enzyme (ACE; EC. 3.4.15.1)
Type: biochemical
Conditions: for ACE inhibitory rate: HHL substrate, pH 8.3, 37 °C, HPLC-DAD 226 nm, mean ± SEM of three repeats
Method: The ACE inhibiting capability was evaluated according to the method described by Wang et al. ([14], which employs the hippuryl-histidilleucina tripeptide (Hip-His-Leu or HHL) as the substrate and evaluates the formation of hippuric acid (HA) by liquid chromatography (HPLC-DAD). Briefly, the commercial enzyme ACE and the substrate HHL (Sigma-Aldrich®) were dissolved in borate buffer (NaOH and boric acid) 100 mmol·L^−1, pH 8.3, supplemented with 300 mmol·L^−1 NaCl; their concentrations were 0.2 U/mL and 5 mmol·L^−1, respectively. Meanwhile, HA and captopril (standard ACE inhibitor) were dissolved in distilled water. The enzyme was pre-incubated in the presence or absence of inhibitor (isolated microginins or captopril) for […] at 37 °C, and the reaction was initiated by addition of substrate. After 30 min, the reaction was stopped by adding 250 μL of hydrochloric acid, and the sample was directly injected into the chromatographic system. […] After 5 min, the substrate was added to start the reaction.
The inhibitory rate was calculated, according to Wang et al., by I% = (A − B)/A × 100%; where A is the peak area of HA without adding ACE inhibitors; and B is the peak area of HA with the addition of ACE inhibitors. All data presented are the average of three repeats; the data are presented as means ± SEM.

| ACE inhibitory rate (captopril 0.8 µM) [%] | Molecule | ACE inhibition (in words) (IC50-based comparison with other microginins) | ACE inhibitory rate (microginin 800 µg·mL^−1) [%] |
| --- | --- | --- | --- |
|  | MeAhda-L-Val-L-Leu-L-HTyr-L-Tyr [MG 770] | efficiently inhibits ACE, with activity comparable to that of other previously described microginins | 92.15 ± 2.76 |
| 88.25 ± 1.19 | C[C@H](CS)C(=O)N1CCC[C@H]1C(=O)O [captopril, reference compound] |  |  |

— paper PMC6149861, “Identification, In Vitro Testing and Molecular Docking Studies of Microginins’ Mechanism of Angiotensin-Converting Enzyme Inhibition” (Molecules : A Journal of Synthetic Chemistry and Natural …, 2017)
